# According to paper PMC12520456, “Regulating Enzyme Activity via Microaggregates Mediated by Phase Separation” (Advanced Science, 2025):
# Non-standard residues stand in square brackets, D forms with d. Residues, ends and D or L forms follow the SMILES beside them.
# Experiments:
# [1] = Turbidity and CLSM phase separation of DPMD with trypsin/chymotrypsin; type: physicochemical
# From the text: Next, these intriguing microaggregates were further investigated using fluorescence recovery after photobleaching (FRAP) experiments. […] To directly visualize the liquid–solid phase separation process, we performed time‐lapse confocal microscopy on mixtures of DPMD and trypsin/chymotrypsin. Initially, numerous small, spherical DPMD‐rich microdroplets appeared upon enzyme addition and gradually grew into larger droplets within minutes (Figure S5A, Supporting Information). […] We next examined whether the enzyme–peptide aggregates remain stable under varying physiological conditions, such as changes in pH and enzyme concentration.
# Figure S5. (A) The CLSM images of DPMD with enzyme and DPMD without enzyme under different time. (B) Turbidity measurements result illustrating the phase separation of DPMD -treated trypsin and chymotrypsin at different concentrations or pH shifts . % represents the mass fraction of the DPMD/trypsin/chymotrypsin . (C) The CLSM images of DPMD with enzyme, DPMD without enzyme and DPMD with enzyme and aprotinin. (D&E) The CLSM images of DPMD with enzyme and DPMD without enzyme under different pH (D) or enzyme concentrations […]
# (1 picture or pasted object on this page, not shown here)
# 0.22μm filter to remove residue. The calcium content of the supernatant was measured using the Calcium ion detection kit (Beyotime) according to the recommended method. […]
# Peptide and enzyme solutions were prepared at varying concentrations and mixed at a 1:1 volume ratio. Solution turbidity was quantitatively assessed by monitoring absorbance at 405 nm using a BioTek spectrophotometer. For fluorescence-based characterization, peptides were labeled with FITC while enzymes were labeled with Cy5. […] For fluorescence recovery after photobleaching (FRAP) analysis, enzyme-aggregated patches were selectively bleached at 60% laser power using 488/640 nm lasers for 10 s, followed by time-lapse imaging at 1-min intervals. […] Fluorescence intensity in the photobleached region was measured using ImageJ software , with values normalized to pre-bleach baselines. […]
# NIH-3T3 or HUVEC = experiment: Annexin V/PI apoptosis assay by flow cytometry; type: cell-based; conditions: 48 h; DPMD, also pre-incubated with trypsin or chymotrypsin; Figure S14B
# Procedure: and the product's absorbance at […] was dynamically and real-time monitored using a microplate […]
# During the chymotrypsin activity assay, DPMD was incorporated into chymotrypsin. The final concentration of chymotrypsin was set at 10 μg/mL, and the final concentration of DPMD was 5 mg/mL. In the corresponding control group, an equal volume of the buffer solution prepared by the kit was added. Subsequently, the enzyme-peptide mixture was added to the reaction system containing the substrate N-Benzoyl-L-Tyrosine Ethyl Ester (BTEE) at a ratio of 1:100 (where the proportion of the enzyme-peptide mixture solution was 1) for the detection of enzyme activity. The reaction was carried out at 25 ℃, and the product's absorbance at 256 nm was dynamically and real-time monitored using a microplate reader. The experimental result was represented by the enzyme reaction's degree of completion. All the tests were repeated three independent times.
# NIH-3T3 cells were obtained from the National Collection of Authenticated Cell Cultures. […] Cell viability was evaluated by the CCK-8 assay (Dojindo) at 1-, 3-, 5-, and 7-days post-treatment. […] The absorbance at 450 nm was recorded using a microplate reader […]
# was performed using an Annexin V-Alexa Fluor 647/PI kit (Solarbio) according to the manufacturer’ s protocol. […] Samples were analyzed within 1h on a Sony MA900 flow cytometer.
# 3.12 Animal fluorescence imaging […]
structure (smiles),measurement,setting,value
"CC[C@@H](C)[C@@H](NC(=O)[C@@H](CCC(N)=O)NC(=O)[C@H](NC(=O)[C@@H](Cc1ccc(O)cc1)NC(=O)CNC(=O)[C@@H](CC(C)C)NC(=O)[C@H](NC(=O)[C@@H](CO)NC(=O)CNC(=O)[C@@H](C)NC(=O)[C@@H](CC(=O)O)NC(=O)[C@@H](C)NC(=O)[C@@H](CCCNC(=N)N)NC(=O)[C@@H](C)NC(=O)[C@@H](CC(=O)O)NC(=O)[C@@H](C)NC(=O)[C@@H](CCCNC(=N)N)NC(=O)[C@@H](C)NC(=O)[C@@H](CC(=O)O)NC(=O)[C@@H](C)NC(=O)[C@@H](CCCNC(=N)N)NC(=O)[C@@H](C)NC(=O)[C@@H](CC(=O)O)NC(=O)[C@@H](C)NC(=O)[C@H](N)CCCNC(=N)N)C(C)C)[C@H](C)CC)C(=O)N[C@H](CCCNC(=N)N)C(=O)O [DPMD, Ac‐(D‐RADA)4‐CONH2] (H-[dR][dA][dD][dA][dR][dA][dD][dA][dR][dA][dD][dA][dR][dA][dD][dA]G[dS][dV][dL]G[dY][dI][dQ][dI][dR]-OH; N-terminus and C-terminus assumed)",phase separation by turbidity,"[1]; absorbance at 405 nm, DPMD and trypsin/chymotrypsin mixtures 1:1 volume, across a range of pH levels and enzyme concentrations, Figure S5B",robust phase separation
same,phase separation with aprotinin-neutralized protease,"[1]; enzyme pre-incubated with aprotinin, CLSM, Figure S5C",no significant phase separation occurred
same,aggregate formation at shifted pH,"[1]; pH 5.6 and pH 8.4, mixtures with trypsin/chymotrypsin, Figure S5D",still became cloudy and formed microscopically visible droplets/aggregates
same,apoptosis or necrosis (Annexin V/PI),NIH-3T3 or HUVEC,no increase in apoptosis or necrosis
